# Measured values: patent US20260274829A1, “NEW E3 UBIQUITIN LIGASE LIGAND, PROTEIN DEGRADATION AGENT AND USE THEREOF” (GLUETACS THERAPEUTICS (SHANGHAI) CO., LTD., priority 2023, published 2026)
# Assays:
# Assay type in all cases: cell-based
# CK1a = biological target: T1, CK1a (Homo sapiens, UniProt P48729+Q96SW2); assay: Western blot degradation of CK1a in hPBMC
# T1 construct: endogenous in cells; host or cells: hPBMC
# Summary of the method: (§1)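 hPBMC treated with degraders, lysates run on SDS-PAGE and Western blotted; band grayscale measured against DMSO controls. DC50 from fitted concentration-response curve at half control intensity. Remaining target protein (%) = target band normalized to internal control band, relative to untreated.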
# WEE1 = biological target: T2, WEE1 (Homo sapiens, UniProt P30291+Q96SW2); assay: Western blot degradation of WEE1 in hPBMC
# T2 construct: endogenous in cells; host or cells: hPBMC
# Summary of the method: as §1
# IKZF1 = biological target: T3, IKZF1 (Homo sapiens, UniProt Q13422+Q96SW2); assay: Western blot degradation of IKZF1 in hPBMC
# T3 construct: endogenous in cells; host or cells: hPBMC
# Summary of the method: as §1
# IKZF3 = biological target: T4, IKZF3 (Homo sapiens, UniProt Q96SW2+Q9UKT9); assay: Western blot degradation of IKZF3 in hPBMC
# T4 construct: endogenous in cells; host or cells: hPBMC
# Summary of the method: as §1
# IKZF2 = biological target: T5, IKZF2 (Homo sapiens, UniProt Q96SW2+Q9UKS7); assay: Western blot degradation of IKZF2 in hPBMC
# T5 construct: endogenous in cells; host or cells: hPBMC
# Summary of the method: as §1
# GSPT1 = biological target: T6, GSPT1 (Homo sapiens, UniProt P15170+Q96SW2); assay: Western blot degradation of GSPT1 in hPBMC
# T6 construct: endogenous in cells; host or cells: hPBMC
# Summary of the method: as §1
# T4 sequence (Q9UKT9 whole entry): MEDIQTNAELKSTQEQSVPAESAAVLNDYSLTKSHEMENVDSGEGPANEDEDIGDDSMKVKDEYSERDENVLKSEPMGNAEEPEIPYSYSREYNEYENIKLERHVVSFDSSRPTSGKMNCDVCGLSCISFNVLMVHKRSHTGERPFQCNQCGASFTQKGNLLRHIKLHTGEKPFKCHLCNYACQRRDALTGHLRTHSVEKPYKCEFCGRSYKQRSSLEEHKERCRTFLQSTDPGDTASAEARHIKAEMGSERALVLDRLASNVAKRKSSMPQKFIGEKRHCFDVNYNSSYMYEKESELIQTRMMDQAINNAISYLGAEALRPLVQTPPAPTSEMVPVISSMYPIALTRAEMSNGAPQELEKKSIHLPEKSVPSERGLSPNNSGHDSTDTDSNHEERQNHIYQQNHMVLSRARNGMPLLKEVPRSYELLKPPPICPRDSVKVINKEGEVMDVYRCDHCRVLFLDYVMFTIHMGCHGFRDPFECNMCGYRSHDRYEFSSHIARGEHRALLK
# T4 sequence (Q96SW2 whole entry): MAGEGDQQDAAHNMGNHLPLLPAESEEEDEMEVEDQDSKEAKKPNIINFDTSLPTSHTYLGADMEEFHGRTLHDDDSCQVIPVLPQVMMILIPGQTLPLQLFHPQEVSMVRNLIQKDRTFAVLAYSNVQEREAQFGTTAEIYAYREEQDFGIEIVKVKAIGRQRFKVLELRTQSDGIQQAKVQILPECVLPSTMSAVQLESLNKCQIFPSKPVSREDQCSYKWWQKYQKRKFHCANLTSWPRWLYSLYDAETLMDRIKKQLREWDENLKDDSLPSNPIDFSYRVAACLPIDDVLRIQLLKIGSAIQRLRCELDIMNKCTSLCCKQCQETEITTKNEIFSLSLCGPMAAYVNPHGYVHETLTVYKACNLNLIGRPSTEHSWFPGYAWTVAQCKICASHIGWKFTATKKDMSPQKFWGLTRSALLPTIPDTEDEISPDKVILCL
# T4 sequence (Q16531 whole entry partner): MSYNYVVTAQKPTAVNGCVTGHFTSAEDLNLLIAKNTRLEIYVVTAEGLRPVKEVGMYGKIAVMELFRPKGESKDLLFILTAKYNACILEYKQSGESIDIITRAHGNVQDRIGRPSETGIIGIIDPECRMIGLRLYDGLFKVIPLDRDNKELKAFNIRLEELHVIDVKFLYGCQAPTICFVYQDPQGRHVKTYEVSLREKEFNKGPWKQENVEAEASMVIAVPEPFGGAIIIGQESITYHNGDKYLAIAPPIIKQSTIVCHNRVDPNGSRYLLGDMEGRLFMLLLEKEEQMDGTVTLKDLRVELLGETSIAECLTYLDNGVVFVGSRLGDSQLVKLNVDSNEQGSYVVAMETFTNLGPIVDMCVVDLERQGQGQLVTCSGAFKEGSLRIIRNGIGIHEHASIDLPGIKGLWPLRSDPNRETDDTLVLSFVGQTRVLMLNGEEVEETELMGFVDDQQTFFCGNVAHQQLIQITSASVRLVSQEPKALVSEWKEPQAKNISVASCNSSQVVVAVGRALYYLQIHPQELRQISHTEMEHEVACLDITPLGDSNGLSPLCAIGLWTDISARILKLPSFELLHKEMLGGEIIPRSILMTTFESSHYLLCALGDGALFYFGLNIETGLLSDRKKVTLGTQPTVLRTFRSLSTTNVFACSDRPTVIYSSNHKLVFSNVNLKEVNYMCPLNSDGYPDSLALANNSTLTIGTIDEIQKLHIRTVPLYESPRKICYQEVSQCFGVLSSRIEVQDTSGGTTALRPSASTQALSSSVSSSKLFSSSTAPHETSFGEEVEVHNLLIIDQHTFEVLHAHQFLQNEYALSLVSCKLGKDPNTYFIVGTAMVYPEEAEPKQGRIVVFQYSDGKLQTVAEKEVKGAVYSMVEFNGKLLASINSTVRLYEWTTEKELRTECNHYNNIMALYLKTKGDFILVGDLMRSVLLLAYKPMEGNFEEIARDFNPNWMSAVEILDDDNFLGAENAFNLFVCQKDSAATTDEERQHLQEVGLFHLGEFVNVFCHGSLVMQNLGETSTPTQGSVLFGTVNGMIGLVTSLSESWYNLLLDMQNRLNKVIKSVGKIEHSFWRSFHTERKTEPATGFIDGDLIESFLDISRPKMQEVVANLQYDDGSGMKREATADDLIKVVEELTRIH
# T2 sequence (P30291 whole entry): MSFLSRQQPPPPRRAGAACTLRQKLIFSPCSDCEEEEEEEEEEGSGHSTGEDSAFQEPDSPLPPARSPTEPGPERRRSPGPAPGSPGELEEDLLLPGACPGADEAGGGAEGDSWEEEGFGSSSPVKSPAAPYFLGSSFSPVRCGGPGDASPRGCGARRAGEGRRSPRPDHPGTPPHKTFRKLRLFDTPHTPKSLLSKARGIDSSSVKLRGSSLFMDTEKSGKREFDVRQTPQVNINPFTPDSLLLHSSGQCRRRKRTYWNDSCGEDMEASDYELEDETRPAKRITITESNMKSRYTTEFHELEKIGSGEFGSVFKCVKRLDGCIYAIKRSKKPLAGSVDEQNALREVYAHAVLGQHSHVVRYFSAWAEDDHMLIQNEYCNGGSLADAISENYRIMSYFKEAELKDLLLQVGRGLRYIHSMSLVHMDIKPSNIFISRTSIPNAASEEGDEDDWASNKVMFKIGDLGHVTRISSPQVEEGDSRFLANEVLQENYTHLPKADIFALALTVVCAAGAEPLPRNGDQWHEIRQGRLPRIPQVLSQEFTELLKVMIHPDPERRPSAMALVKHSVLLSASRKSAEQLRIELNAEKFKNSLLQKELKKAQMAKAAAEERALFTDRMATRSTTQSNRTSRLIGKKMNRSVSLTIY
# T2 sequence (Q96SW2 whole entry): as the sequence (Q96SW2 whole entry) above
# T2 sequence (Q16531 whole entry partner): as the sequence (Q16531 whole entry partner) above
# T1 sequence (P48729 whole entry): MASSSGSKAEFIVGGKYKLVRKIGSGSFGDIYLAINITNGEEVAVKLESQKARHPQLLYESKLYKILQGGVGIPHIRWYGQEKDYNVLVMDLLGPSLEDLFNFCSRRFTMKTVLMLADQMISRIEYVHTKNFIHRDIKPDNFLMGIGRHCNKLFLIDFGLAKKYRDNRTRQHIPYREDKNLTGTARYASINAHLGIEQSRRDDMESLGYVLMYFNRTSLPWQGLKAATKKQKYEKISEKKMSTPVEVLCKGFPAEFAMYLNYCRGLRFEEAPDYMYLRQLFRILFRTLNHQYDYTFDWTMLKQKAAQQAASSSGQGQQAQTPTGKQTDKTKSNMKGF
# T1 sequence (Q96SW2 whole entry): as the sequence (Q96SW2 whole entry) above
# T1 sequence (Q16531 whole entry partner): as the sequence (Q16531 whole entry partner) above
# T5 sequence (Q9UKS7 whole entry): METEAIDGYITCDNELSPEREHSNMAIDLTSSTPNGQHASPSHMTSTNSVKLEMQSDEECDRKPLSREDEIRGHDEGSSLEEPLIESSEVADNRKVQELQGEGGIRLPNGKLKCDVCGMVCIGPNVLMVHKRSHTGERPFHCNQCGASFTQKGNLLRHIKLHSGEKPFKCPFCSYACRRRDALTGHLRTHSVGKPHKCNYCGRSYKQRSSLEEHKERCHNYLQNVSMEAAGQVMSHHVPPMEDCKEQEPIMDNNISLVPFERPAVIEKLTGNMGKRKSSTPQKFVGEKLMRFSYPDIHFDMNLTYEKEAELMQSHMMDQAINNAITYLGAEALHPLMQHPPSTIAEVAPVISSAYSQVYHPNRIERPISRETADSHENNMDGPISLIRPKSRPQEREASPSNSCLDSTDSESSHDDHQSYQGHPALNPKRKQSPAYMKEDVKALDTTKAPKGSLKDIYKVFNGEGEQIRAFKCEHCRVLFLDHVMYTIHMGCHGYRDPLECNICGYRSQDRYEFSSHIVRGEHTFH
# T5 sequence (Q96SW2 whole entry): as the sequence (Q96SW2 whole entry) above
# T5 sequence (Q16531 whole entry partner): as the sequence (Q16531 whole entry partner) above
# T3 sequence (Q13422 whole entry): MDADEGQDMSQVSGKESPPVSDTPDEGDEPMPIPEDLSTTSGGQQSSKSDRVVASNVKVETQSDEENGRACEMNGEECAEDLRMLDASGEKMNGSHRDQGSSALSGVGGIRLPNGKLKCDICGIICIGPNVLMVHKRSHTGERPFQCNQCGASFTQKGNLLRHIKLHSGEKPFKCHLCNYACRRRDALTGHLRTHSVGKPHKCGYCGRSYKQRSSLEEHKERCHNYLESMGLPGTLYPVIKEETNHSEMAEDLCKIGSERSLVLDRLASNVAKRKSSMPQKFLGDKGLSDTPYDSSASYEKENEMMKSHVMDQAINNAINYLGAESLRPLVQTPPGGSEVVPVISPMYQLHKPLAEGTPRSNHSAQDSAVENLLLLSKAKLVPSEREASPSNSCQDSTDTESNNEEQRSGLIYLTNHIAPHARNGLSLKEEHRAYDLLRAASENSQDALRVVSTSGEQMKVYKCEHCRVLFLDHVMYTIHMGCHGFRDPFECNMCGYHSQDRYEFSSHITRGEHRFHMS
# T3 sequence (Q96SW2 whole entry): as the sequence (Q96SW2 whole entry) above
# T3 sequence (Q16531 whole entry partner): as the sequence (Q16531 whole entry partner) above
Compound,Degradation of substrate protein CK1a (substrate protein remaining %) (CK1a),Degradation of substrate protein WEE1 (substrate protein remaining %) (WEE1),Degradation of substrate protein IKZF1 (substrate protein remaining %) (IKZF1),Degradation of substrate protein IKZF3 (substrate protein remaining %) (IKZF3),Degradation of substrate protein IKZF2 (substrate protein remaining %) (IKZF2),Degradation of substrate protein GSPT1 (substrate protein remaining %) (GSPT1)
"O=C1CCN(c2cnc(CCl)cn2)C(=O)N1 [GT-07635, 1-(5-(chloromethyl)pyrazin-2-yl)dihydropyrimidine-2,4(1H,3H)-dione]",A (A is defined as 0% ≤ substrate protein remaining % ≤ 80%),A (A is defined as 0% ≤ substrate protein remaining % ≤ 80%),A (A is defined as 0% ≤ substrate protein remaining % ≤ 80%),A (A is defined as 0% ≤ substrate protein remaining % ≤ 80%),A (A is defined as 0% ≤ substrate protein remaining % ≤ 80%),B (B is defined as substrate protein remaining % > 80%)
"O=C1CCC(c2ccc(CO)nn2)C(=O)N1 (stereo not drawn) [GT-07636, 3-(6-(hydroxymethyl)pyridazin-3-yl)piperidine-2,6-dione]",B (B is defined as substrate protein remaining % > 80%),B (B is defined as substrate protein remaining % > 80%),A (A is defined as 0% ≤ substrate protein remaining % ≤ 80%),A (A is defined as 0% ≤ substrate protein remaining % ≤ 80%),A (A is defined as 0% ≤ substrate protein remaining % ≤ 80%),A (A is defined as 0% ≤ substrate protein remaining % ≤ 80%)
"CC(C)(C)[Si](C)(C)OCc1ccncc1NC1CCC(=O)NC1=O (stereo not drawn) [GT-07638, 3-((4-(((tert-butyldimethylsilyl)oxy)methyl)pyridin-3-yl)amino)piperidine-2,6-dione]",B (B is defined as substrate protein remaining % > 80%),A (A is defined as 0% ≤ substrate protein remaining % ≤ 80%),B (B is defined as substrate protein remaining % > 80%),A (A is defined as 0% ≤ substrate protein remaining % ≤ 80%),A (A is defined as 0% ≤ substrate protein remaining % ≤ 80%),A (A is defined as 0% ≤ substrate protein remaining % ≤ 80%)
"CC(C)(C)[Si](C)(C)OCc1cncnc1NC1CCC(=O)NC1=O (stereo not drawn) [GT-07639, 3-((5-(((tert-butyldimethylsilyl)oxy)methyl)pyrimidin-4-yl)amino)piperidine-2,6-dione]",A (A is defined as 0% ≤ substrate protein remaining % ≤ 80%),A (A is defined as 0% ≤ substrate protein remaining % ≤ 80%),A (A is defined as 0% ≤ substrate protein remaining % ≤ 80%),A (A is defined as 0% ≤ substrate protein remaining % ≤ 80%),A (A is defined as 0% ≤ substrate protein remaining % ≤ 80%),A (A is defined as 0% ≤ substrate protein remaining % ≤ 80%)
"O=Cc1ccc(NC2CCC(=O)NC2=O)cn1 (stereo not drawn) [GT-07640, 5-((2,6-dioxopiperidin-3-yl)amino)picolinaldehyde]",B (B is defined as substrate protein remaining % > 80%),A (A is defined as 0% ≤ substrate protein remaining % ≤ 80%),A (A is defined as 0% ≤ substrate protein remaining % ≤ 80%),A (A is defined as 0% ≤ substrate protein remaining % ≤ 80%),A (A is defined as 0% ≤ substrate protein remaining % ≤ 80%),A (A is defined as 0% ≤ substrate protein remaining % ≤ 80%)
"CC(C)(C)[Si](C)(C)OCc1cc(NC2CCC(=O)NC2=O)ncc1F (stereo not drawn) [GT-07724, 3-((4-(((tert-butyldimethylsilyl)oxy)methyl)-5-fluoropyridin-2-yl)amino)piperidine-2,6-dione]",B (B is defined as substrate protein remaining % > 80%),A (A is defined as 0% ≤ substrate protein remaining % ≤ 80%),A (A is defined as 0% ≤ substrate protein remaining % ≤ 80%),A (A is defined as 0% ≤ substrate protein remaining % ≤ 80%),A (A is defined as 0% ≤ substrate protein remaining % ≤ 80%),A (A is defined as 0% ≤ substrate protein remaining % ≤ 80%)
"O=C1CCC(Nc2cc(CO)c(F)cn2)C(=O)N1 (stereo not drawn) [GT-07725, 3-((5-fluoro-4-(hydroxymethyl)pyridin-2-yl)amino)piperidine-2,6-dione]",B (B is defined as substrate protein remaining % > 80%),A (A is defined as 0% ≤ substrate protein remaining % ≤ 80%),A (A is defined as 0% ≤ substrate protein remaining % ≤ 80%),A (A is defined as 0% ≤ substrate protein remaining % ≤ 80%),A (A is defined as 0% ≤ substrate protein remaining % ≤ 80%),A (A is defined as 0% ≤ substrate protein remaining % ≤ 80%)
"CC(C)(C)[Si](C)(C)OCc1ccc(NC2CCC(=O)NC2=O)nn1 (stereo not drawn) [GT-07726, 3-((6-(((tert-butyldimethylsilyl)oxy)methyl)pyridazin-3-yl)amino)piperidine-2,6-dione]",B (B is defined as substrate protein remaining % > 80%),A (A is defined as 0% ≤ substrate protein remaining % ≤ 80%),A (A is defined as 0% ≤ substrate protein remaining % ≤ 80%),A (A is defined as 0% ≤ substrate protein remaining % ≤ 80%),A (A is defined as 0% ≤ substrate protein remaining % ≤ 80%),B (B is defined as substrate protein remaining % > 80%)
"O=C1CCC(Nc2ncncc2CO)C(=O)N1 (stereo not drawn) [GT-07727, 3-((5-(hydroxymethyl)pyrimidin-4-yl)amino)piperidine-2,6-dione]",B (B is defined as substrate protein remaining % > 80%),A (A is defined as 0% ≤ substrate protein remaining % ≤ 80%),A (A is defined as 0% ≤ substrate protein remaining % ≤ 80%),A (A is defined as 0% ≤ substrate protein remaining % ≤ 80%),A (A is defined as 0% ≤ substrate protein remaining % ≤ 80%),B (B is defined as substrate protein remaining % > 80%)
"O=C1CCN(c2cncc(CCl)n2)C(=O)N1 [GT-07728, 1-(6-(chloromethyl)pyrazin-2-yl)dihydropyrimidine-2,4(1H,3H)-dione]",B (B is defined as substrate protein remaining % > 80%),A (A is defined as 0% ≤ substrate protein remaining % ≤ 80%),A (A is defined as 0% ≤ substrate protein remaining % ≤ 80%),A (A is defined as 0% ≤ substrate protein remaining % ≤ 80%),A (A is defined as 0% ≤ substrate protein remaining % ≤ 80%),B (B is defined as substrate protein remaining % > 80%)
"NCc1cc(N2CCC(=O)NC2=O)cnc1F [GT-07729, 1-(5-(aminomethyl)-6-fluoropyridin-3-yl)dihydropyrimidine-2,4(1H,3H)-dione]",B (B is defined as substrate protein remaining % > 80%),A (A is defined as 0% ≤ substrate protein remaining % ≤ 80%),A (A is defined as 0% ≤ substrate protein remaining % ≤ 80%),A (A is defined as 0% ≤ substrate protein remaining % ≤ 80%),A (A is defined as 0% ≤ substrate protein remaining % ≤ 80%),A (A is defined as 0% ≤ substrate protein remaining % ≤ 80%)
